Data published in the kinase profiling compilation of Christmann-Franck et al. (2016).
One block for each compound: values may come before it.

Tests used:
Experiment in all cases: KINOMEscan competition binding
Details in all cases: compound 10.0 µM
CDK19 (human) = CDK19 (human) (UniProt Q9BWU1)
FGR (human) = FGR (human) (UniProt P09769)
GAK (human) = GAK (human) (UniProt O14976)
KIT (human) = KIT (human) (UniProt P10721)
[1] = system: ABL1 (human), P00519 [Y253F]
[2] = biological target: JAK3 JH1 catalytic (human) (UniProt P52333)
MAPK13 (human) = MAPK13 (human) (UniProt O15264)
YES1 (human) = YES1 (human) (UniProt P07947)
ERBB4 (human) = ERBB4 (human) (UniProt Q15303)
FER (human) = FER (human) (UniProt P16591)
STK35 (human) = STK35 (human) (UniProt Q8TDR2)
CDC2L2 (human) = CDC2L2 (human) (UniProt Q9UQ88)
[3] = system: RET (human), P07949 [V804L]
MKNK2 (human) = MKNK2 (human) (UniProt Q9HBH9)
MLTK (human) = MLTK (human) (UniProt Q9NYL2)
MYO3B (human) = MYO3B (human) (UniProt Q8WXR4)
SLK (human) = SLK (human) (UniProt Q9H2G2)
Sequence of SLK (human) (Q9H2G2 whole entry, looked up): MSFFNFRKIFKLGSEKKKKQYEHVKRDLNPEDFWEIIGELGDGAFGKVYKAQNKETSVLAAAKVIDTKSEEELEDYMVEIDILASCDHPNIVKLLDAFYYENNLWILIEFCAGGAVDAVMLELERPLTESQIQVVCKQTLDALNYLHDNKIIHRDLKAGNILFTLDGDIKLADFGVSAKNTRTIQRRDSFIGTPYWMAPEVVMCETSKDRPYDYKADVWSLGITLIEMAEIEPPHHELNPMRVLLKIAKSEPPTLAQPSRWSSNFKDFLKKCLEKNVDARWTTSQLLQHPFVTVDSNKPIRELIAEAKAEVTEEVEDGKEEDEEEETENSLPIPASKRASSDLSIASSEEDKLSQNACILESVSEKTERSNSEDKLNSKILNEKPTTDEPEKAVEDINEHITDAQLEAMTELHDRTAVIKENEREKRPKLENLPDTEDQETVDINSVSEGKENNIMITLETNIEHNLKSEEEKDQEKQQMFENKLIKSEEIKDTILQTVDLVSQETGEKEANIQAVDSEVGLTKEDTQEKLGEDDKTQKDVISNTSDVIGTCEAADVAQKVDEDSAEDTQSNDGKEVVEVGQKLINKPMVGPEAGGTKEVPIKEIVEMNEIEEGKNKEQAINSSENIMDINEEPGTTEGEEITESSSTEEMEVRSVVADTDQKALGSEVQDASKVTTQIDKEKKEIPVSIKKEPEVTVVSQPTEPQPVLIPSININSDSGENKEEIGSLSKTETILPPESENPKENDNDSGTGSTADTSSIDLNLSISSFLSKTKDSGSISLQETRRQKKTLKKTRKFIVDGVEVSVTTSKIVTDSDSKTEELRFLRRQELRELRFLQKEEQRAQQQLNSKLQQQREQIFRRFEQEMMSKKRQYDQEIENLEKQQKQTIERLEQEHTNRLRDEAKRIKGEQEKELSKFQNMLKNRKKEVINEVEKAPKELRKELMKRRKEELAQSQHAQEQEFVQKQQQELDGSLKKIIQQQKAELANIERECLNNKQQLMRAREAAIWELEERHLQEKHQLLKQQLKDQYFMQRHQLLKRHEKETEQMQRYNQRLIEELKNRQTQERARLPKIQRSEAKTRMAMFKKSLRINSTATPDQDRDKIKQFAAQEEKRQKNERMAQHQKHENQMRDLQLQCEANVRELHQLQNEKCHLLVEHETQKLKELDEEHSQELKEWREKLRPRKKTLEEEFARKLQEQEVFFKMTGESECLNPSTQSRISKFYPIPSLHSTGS

CDK7 (human) = CDK7 (human) (UniProt P50613)
PRKCE (human) = PRKCE (human) (UniProt Q02156)
Sequence of PRKCE (human) (Q02156 whole entry, looked up): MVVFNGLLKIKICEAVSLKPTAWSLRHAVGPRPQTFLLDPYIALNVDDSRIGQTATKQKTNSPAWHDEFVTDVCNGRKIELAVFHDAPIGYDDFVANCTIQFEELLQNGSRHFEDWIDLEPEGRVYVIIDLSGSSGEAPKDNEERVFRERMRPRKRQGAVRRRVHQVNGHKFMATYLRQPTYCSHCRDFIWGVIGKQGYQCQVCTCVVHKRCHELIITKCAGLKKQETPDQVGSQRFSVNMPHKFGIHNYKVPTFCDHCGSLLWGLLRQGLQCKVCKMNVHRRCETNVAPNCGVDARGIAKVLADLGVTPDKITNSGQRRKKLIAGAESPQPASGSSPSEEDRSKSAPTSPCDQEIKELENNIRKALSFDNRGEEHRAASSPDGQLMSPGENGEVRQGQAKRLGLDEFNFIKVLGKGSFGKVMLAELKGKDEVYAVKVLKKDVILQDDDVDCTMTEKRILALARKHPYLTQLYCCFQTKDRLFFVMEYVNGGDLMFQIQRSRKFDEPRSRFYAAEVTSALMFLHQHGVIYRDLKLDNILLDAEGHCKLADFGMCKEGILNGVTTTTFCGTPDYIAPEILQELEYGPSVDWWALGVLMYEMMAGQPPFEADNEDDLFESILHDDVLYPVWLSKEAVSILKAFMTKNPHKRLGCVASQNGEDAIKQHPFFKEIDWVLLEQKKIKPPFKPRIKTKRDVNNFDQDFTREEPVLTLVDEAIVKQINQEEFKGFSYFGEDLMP

CDK5 (human) = CDK5 (human) (UniProt Q00535)
Sequence of CDK5 (human) (Q00535 whole entry, looked up): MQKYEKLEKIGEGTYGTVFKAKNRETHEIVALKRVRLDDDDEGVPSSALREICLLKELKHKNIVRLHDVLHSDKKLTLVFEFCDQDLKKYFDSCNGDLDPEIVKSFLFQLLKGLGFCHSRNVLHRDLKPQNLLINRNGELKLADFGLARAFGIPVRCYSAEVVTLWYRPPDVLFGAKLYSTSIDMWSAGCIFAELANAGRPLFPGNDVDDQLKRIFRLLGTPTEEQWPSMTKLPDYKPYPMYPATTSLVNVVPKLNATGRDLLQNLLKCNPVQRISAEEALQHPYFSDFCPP

SRPK2 (human) = SRPK2 (human) (UniProt P78362)
BRSK2 (human) = BRSK2 (human) (UniProt Q8IWQ3)
NEK9 (human) = NEK9 (human) (UniProt Q8TD19)
Sequence of NEK9 (human) (Q8TD19 whole entry, looked up): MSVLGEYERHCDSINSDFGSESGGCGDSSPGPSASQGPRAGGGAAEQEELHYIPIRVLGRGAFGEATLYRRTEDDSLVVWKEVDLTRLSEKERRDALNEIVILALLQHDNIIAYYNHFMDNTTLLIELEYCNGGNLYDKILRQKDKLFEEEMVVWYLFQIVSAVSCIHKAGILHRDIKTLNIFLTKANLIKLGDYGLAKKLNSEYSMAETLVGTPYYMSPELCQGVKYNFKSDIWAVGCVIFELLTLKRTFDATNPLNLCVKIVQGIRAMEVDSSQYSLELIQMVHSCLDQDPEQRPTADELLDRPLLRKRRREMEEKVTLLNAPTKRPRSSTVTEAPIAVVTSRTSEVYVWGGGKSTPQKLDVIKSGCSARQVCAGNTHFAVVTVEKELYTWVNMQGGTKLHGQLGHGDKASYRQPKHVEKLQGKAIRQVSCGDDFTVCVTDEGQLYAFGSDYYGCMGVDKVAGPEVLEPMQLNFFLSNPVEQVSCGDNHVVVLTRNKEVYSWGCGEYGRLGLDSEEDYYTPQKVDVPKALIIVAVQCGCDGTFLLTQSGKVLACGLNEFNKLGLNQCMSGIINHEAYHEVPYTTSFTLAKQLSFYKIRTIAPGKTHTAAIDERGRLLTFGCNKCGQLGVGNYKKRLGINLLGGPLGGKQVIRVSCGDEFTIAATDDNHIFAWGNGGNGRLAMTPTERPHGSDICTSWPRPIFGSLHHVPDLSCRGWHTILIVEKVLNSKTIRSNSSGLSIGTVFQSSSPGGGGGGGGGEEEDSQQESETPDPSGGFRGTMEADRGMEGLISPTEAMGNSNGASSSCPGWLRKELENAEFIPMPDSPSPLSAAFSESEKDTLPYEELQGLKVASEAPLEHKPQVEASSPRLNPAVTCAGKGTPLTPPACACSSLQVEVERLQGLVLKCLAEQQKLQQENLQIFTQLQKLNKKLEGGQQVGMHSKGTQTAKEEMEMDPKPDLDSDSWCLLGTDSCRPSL

NEK1 (human) = NEK1 (human) (UniProt Q96PY6)
STK11 (human) = STK11 (human) (UniProt Q15831)
BMP2K (human) = BMP2K (human) (UniProt Q9NSY1)
CSNK1G2 (human) = CSNK1G2 (human) (UniProt P78368)
Sequence of CSNK1G2 (human) (P78368 whole entry, looked up): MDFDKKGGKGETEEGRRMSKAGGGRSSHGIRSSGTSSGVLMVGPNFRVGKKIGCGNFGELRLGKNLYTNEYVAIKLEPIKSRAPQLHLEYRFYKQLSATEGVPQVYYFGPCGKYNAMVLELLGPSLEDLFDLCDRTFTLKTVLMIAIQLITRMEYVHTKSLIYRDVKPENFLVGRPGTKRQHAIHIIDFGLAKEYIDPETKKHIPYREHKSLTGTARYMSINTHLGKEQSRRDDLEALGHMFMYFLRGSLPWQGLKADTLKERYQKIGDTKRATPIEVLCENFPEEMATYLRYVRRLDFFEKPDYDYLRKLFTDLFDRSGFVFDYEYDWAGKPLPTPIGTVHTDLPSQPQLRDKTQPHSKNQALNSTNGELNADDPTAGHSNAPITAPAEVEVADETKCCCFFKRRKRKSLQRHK

AKT2 (human) = AKT2 (human) (UniProt P31751)
EPHA7 (human) = EPHA7 (human) (UniProt Q15375)
TSSK1B (human) = TSSK1B (human) (UniProt Q9BXA7)
Sequence of TSSK1B (human) (Q9BXA7 whole entry, looked up): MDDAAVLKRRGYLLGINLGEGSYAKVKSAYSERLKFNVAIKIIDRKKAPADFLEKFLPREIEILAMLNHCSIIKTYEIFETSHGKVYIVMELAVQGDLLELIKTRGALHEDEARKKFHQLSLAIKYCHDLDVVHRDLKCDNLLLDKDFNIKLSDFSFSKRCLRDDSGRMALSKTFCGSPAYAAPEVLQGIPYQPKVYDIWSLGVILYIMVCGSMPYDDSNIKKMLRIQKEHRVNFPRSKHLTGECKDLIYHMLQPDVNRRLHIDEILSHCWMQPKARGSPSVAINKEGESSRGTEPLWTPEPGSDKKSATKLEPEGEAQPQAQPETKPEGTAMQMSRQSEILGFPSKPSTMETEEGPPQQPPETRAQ

PIK3CG (human) = PIK3CG (human) (UniProt P48736)
CSNK2A1 (human) = CSNK2A1 (human) (UniProt P68400)
MAP3K4 (human) = MAP3K4 (human) (UniProt Q9Y6R4)
CHEK2 (human) = CHEK2 (human) (UniProt O96017)
MAPK6 (human) = MAPK6 (human) (UniProt Q16659)
CAMK4 (human) = CAMK4 (human) (UniProt Q16566)
DCLK3 (human) = DCLK3 (human) (UniProt Q9C098)
ULK2 (human) = ULK2 (human) (UniProt Q8IYT8)
RIPK4 (human) = RIPK4 (human) (UniProt P57078)
ADCK4 (human) = ADCK4 (human) (UniProt Q96D53)
[4] = system: KIT (human), P10721 [D816V]
Sequence of KIT (human), P10721 [D816V] (P10721 whole entry D816V, looked up): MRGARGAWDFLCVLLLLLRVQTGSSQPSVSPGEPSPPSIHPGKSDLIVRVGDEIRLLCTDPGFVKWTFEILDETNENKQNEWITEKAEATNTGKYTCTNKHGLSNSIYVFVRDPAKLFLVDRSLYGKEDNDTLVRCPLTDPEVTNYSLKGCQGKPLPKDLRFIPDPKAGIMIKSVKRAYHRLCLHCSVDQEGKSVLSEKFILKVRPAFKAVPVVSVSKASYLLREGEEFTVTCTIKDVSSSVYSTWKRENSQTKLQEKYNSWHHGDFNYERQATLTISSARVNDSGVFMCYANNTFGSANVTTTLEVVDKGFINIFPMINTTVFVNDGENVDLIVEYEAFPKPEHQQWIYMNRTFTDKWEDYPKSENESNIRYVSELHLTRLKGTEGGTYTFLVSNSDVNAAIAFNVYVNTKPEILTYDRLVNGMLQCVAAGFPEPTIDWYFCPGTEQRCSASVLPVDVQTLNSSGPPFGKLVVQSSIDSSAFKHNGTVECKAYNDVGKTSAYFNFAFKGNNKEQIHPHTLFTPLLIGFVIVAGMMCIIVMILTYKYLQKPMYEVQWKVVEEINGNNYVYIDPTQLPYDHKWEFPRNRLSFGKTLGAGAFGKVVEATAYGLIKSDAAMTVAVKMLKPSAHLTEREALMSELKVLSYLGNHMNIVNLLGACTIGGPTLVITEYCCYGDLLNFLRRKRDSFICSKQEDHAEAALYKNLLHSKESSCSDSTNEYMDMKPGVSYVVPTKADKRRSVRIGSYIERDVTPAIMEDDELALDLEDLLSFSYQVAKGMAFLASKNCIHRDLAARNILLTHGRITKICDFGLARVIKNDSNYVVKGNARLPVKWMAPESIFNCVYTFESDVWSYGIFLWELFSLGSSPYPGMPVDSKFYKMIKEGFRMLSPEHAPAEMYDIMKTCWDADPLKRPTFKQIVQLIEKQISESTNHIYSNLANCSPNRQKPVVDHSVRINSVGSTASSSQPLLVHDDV

[5] = system: PIK3CA (human), P42336 [E545K]
SRPK3 (human) = SRPK3 (human) (UniProt Q9UPE1)

Sequence of KIT (human) (P10721 whole entry, looked up): as the sequence (P10721 whole entry D816V, looked up) above, with V816D counted along it

- kinase still bound, per cent of control (CDK19 (human)): 0.1%
- kinase still bound, per cent of control (FGR (human)): 1.2%
- kinase still bound, per cent of control (GAK (human)): 31%
- kinase still bound, per cent of control (KIT (human)): 0%
- kinase still bound, per cent of control [1]: 1.1%
- kinase still bound, per cent of control [2]: 11%
- kinase still bound, per cent of control (MAPK13 (human)): 0.55%
- kinase still bound, per cent of control (YES1 (human)): 1.6%
- kinase still bound, per cent of control (ERBB4 (human)): 28%
- kinase still bound, per cent of control (FER (human)): 0.5%
- kinase still bound, per cent of control (STK35 (human)): 3%
- kinase still bound, per cent of control (CDC2L2 (human)): 0.05%
- kinase still bound, per cent of control [3]: 0.8%
- kinase still bound, per cent of control (MKNK2 (human)): 4.2%
- kinase still bound, per cent of control (MLTK (human)): 0.35%
- kinase still bound, per cent of control (MYO3B (human)): 4.8%
- kinase still bound, per cent of control (SLK (human)): 2%
- kinase still bound, per cent of control (CDK7 (human)): 2.4%
- kinase still bound, per cent of control (PRKCE (human)): 20%
- kinase still bound, per cent of control (CDK5 (human)): 19%
SMILES: CCN1CCN(Cc2ccc(NC(=O)c3ccc(C)c(Oc4ccnc5[nH]ccc45)c3)cc2C(F)(F)F)CC1

SMILES: CCOc1cc(N2CCC(N3CCCCC3)CC2)ccc1Nc1nc(Nc2ccccc2S(=O)(=O)C(C)C)c2cn[nH]c2n1
- kinase still bound, per cent of control (SRPK2 (human)): 100%
- kinase still bound, per cent of control (BRSK2 (human)): 94%
- kinase still bound, per cent of control (CDK19 (human)): 100%
- kinase still bound, per cent of control (NEK9 (human)): 100%
- kinase still bound, per cent of control (FGR (human)): 82%
- kinase still bound, per cent of control (GAK (human)): 6%
- kinase still bound, per cent of control (KIT (human)): 87%
- kinase still bound, per cent of control (NEK1 (human)): 100%
- kinase still bound, per cent of control [1]: 61%
- kinase still bound, per cent of control (STK11 (human)): 100%
- kinase still bound, per cent of control (BMP2K (human)): 47%
- kinase still bound, per cent of control (CSNK1G2 (human)): 46%
- kinase still bound, per cent of control (AKT2 (human)): 100%
- kinase still bound, per cent of control (EPHA7 (human)): 100%
- kinase still bound, per cent of control [2]: 84%
- kinase still bound, per cent of control (TSSK1B (human)): 92%
- kinase still bound, per cent of control (MAPK13 (human)): 100%
- kinase still bound, per cent of control (PIK3CG (human)): 100%
- kinase still bound, per cent of control (CSNK2A1 (human)): 100%
- kinase still bound, per cent of control (YES1 (human)): 84%
- kinase still bound, per cent of control (ERBB4 (human)): 7.8%
- kinase still bound, per cent of control (FER (human)): 9.1%
- kinase still bound, per cent of control (MAP3K4 (human)): 100%
- kinase still bound, per cent of control (STK35 (human)): 100%
- kinase still bound, per cent of control (CHEK2 (human)): 23%
- kinase still bound, per cent of control (MAPK6 (human)): 94%
- kinase still bound, per cent of control (CDC2L2 (human)): 100%
- kinase still bound, per cent of control [3]: 82%
- kinase still bound, per cent of control (CAMK4 (human)): 1%
- kinase still bound, per cent of control (MKNK2 (human)): 100%
- kinase still bound, per cent of control (MLTK (human)): 100%
- kinase still bound, per cent of control (MYO3B (human)): 18%
- kinase still bound, per cent of control (DCLK3 (human)): 100%
- kinase still bound, per cent of control (SLK (human)): 14%
- kinase still bound, per cent of control (ULK2 (human)): 3.4%
- kinase still bound, per cent of control (CDK7 (human)): 42%
- kinase still bound, per cent of control (RIPK4 (human)): 76%
- kinase still bound, per cent of control (ADCK4 (human)): 29%
- kinase still bound, per cent of control [4]: 74%
- kinase still bound, per cent of control (PRKCE (human)): 62%
- kinase still bound, per cent of control (CDK5 (human)): 96%
- kinase still bound, per cent of control [5]: 100%
- kinase still bound, per cent of control (SRPK3 (human)): 100%

- kinase still bound, per cent of control (SRPK2 (human)): 12%
- kinase still bound, per cent of control (BRSK2 (human)): 0.5%
- kinase still bound, per cent of control (CDK19 (human)): 40%
- kinase still bound, per cent of control (FGR (human)): 2.8%
- kinase still bound, per cent of control (GAK (human)): 0.1%
- kinase still bound, per cent of control (KIT (human)): 0.1%
- kinase still bound, per cent of control (NEK1 (human)): 40%
- kinase still bound, per cent of control [1]: 4.2%
- kinase still bound, per cent of control (STK11 (human)): 40%
- kinase still bound, per cent of control (BMP2K (human)): 2.8%
- kinase still bound, per cent of control (CSNK1G2 (human)): 40%
- kinase still bound, per cent of control (AKT2 (human)): 40%
- kinase still bound, per cent of control (EPHA7 (human)): 0.4%
- kinase still bound, per cent of control [2]: 2%
- kinase still bound, per cent of control (TSSK1B (human)): 0%
- kinase still bound, per cent of control (MAPK13 (human)): 40%
- kinase still bound, per cent of control (PIK3CG (human)): 40%
- kinase still bound, per cent of control (CSNK2A1 (human)): 27%
- kinase still bound, per cent of control (YES1 (human)): 0.1%
- kinase still bound, per cent of control (ERBB4 (human)): 1.2%
- kinase still bound, per cent of control (FER (human)): 0.05%
- kinase still bound, per cent of control (MAP3K4 (human)): 13%
- kinase still bound, per cent of control (CHEK2 (human)): 0%
- kinase still bound, per cent of control (MAPK6 (human)): 40%
- kinase still bound, per cent of control (CAMK4 (human)): 0.5%
- kinase still bound, per cent of control (MKNK2 (human)): 1.4%
- kinase still bound, per cent of control (MLTK (human)): 40%
- kinase still bound, per cent of control (MYO3B (human)): 0.6%
- kinase still bound, per cent of control (DCLK3 (human)): 0%
- kinase still bound, per cent of control (SLK (human)): 0.1%
- kinase still bound, per cent of control (ULK2 (human)): 1.1%
- kinase still bound, per cent of control (CDK7 (human)): 0.15%
- kinase still bound, per cent of control (RIPK4 (human)): 40%
- kinase still bound, per cent of control (ADCK4 (human)): 0%
- kinase still bound, per cent of control [4]: 3.1%
- kinase still bound, per cent of control (CDK5 (human)): 5.2%
- kinase still bound, per cent of control [5]: 40%
- kinase still bound, per cent of control (SRPK3 (human)): 1.7%
SMILES: COc1cc(N2CCC(N3CCN(C)CC3)CC2)ccc1Nc1ncc(Cl)c(Nc2ccccc2S(=O)(=O)C(C)C)n1
- kinase still bound, per cent of control (NEK9 (human)): 3.3%

SMILES: CCN1CCN(Cc2ccc(NC(=O)c3ccc(C)c(/C=C/c4cnc(Nc5cc(N6CCNCC6)nc(C)n5)cn4)c3)cc2C(F)(F)F)CC1
- kinase still bound, per cent of control (SRPK2 (human)): 100%
- kinase still bound, per cent of control (BRSK2 (human)): 100%
- kinase still bound, per cent of control (CDK19 (human)): 3.5%
- kinase still bound, per cent of control (NEK9 (human)): 27%
- kinase still bound, per cent of control (FGR (human)): 4.5%
- kinase still bound, per cent of control (GAK (human)): 51%
- kinase still bound, per cent of control (KIT (human)): 0.15%
- kinase still bound, per cent of control (NEK1 (human)): 91%
- kinase still bound, per cent of control [1]: 0.1%
- kinase still bound, per cent of control (STK11 (human)): 76%
- kinase still bound, per cent of control (BMP2K (human)): 100%
- kinase still bound, per cent of control (CSNK1G2 (human)): 96%
- kinase still bound, per cent of control (AKT2 (human)): 46%
- kinase still bound, per cent of control (EPHA7 (human)): 76%
- kinase still bound, per cent of control [2]: 3.2%
- kinase still bound, per cent of control (TSSK1B (human)): 100%
- kinase still bound, per cent of control (MAPK13 (human)): 83%
- kinase still bound, per cent of control (PIK3CG (human)): 100%
- kinase still bound, per cent of control (CSNK2A1 (human)): 89%
- kinase still bound, per cent of control (YES1 (human)): 1.4%
- kinase still bound, per cent of control (ERBB4 (human)): 7%
- kinase still bound, per cent of control (FER (human)): 78%
- kinase still bound, per cent of control (MAP3K4 (human)): 2.5%
- kinase still bound, per cent of control (STK35 (human)): 57%
- kinase still bound, per cent of control (CHEK2 (human)): 83%
- kinase still bound, per cent of control (MAPK6 (human)): 100%
- kinase still bound, per cent of control (CDC2L2 (human)): 69%
- kinase still bound, per cent of control [3]: 1.2%
- kinase still bound, per cent of control (CAMK4 (human)): 100%
- kinase still bound, per cent of control (MKNK2 (human)): 18%
- kinase still bound, per cent of control (MLTK (human)): 1.2%
- kinase still bound, per cent of control (MYO3B (human)): 67%
- kinase still bound, per cent of control (DCLK3 (human)): 87%
- kinase still bound, per cent of control (SLK (human)): 2.4%
- kinase still bound, per cent of control (ULK2 (human)): 32%
- kinase still bound, per cent of control (CDK7 (human)): 3%
- kinase still bound, per cent of control (RIPK4 (human)): 17%
- kinase still bound, per cent of control (ADCK4 (human)): 93%
- kinase still bound, per cent of control [4]: 25%
- kinase still bound, per cent of control (PRKCE (human)): 68%
- kinase still bound, per cent of control (CDK5 (human)): 96%
- kinase still bound, per cent of control [5]: 100%
- kinase still bound, per cent of control (SRPK3 (human)): 82%
